Molecular target: T1, human ferroportin (Homo sapiens, UniProt Q9NP59)
T1 construct: luciferase reporter (probably NanoLuc, inferred from the Nano-Glo Luciferase Assay System read-out); expressed in transfected cells; host or cells: CHO cells, stably transfected, expression induced with doxycycline
T1 sequence (Q9NP59 1-571): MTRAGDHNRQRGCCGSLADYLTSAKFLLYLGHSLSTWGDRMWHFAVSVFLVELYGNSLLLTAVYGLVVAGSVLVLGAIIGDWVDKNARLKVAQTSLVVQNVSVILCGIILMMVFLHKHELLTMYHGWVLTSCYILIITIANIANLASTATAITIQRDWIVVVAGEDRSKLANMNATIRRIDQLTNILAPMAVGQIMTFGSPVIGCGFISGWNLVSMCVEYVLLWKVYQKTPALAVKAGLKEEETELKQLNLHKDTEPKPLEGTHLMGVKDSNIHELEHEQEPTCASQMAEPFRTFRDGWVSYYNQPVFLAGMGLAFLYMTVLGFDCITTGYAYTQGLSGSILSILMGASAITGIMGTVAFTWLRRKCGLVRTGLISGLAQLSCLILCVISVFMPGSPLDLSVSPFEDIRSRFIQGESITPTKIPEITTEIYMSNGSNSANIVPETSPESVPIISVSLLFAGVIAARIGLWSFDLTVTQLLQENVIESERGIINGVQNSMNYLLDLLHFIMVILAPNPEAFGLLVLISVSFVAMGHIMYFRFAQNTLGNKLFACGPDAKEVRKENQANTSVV
Assay: In-vitro ferroportin internalization assay (luciferase reporter)
Type: cell-based
Conditions: average pEC50; stably-transfected CHO cell line expressing human ferroportin tagged to a luciferase reporter; 6 h incubation with test compound
Experimental: The protocol for this assay is generally as described in WO2018/128828, incorporated herein by reference in its entirety. Functional internalization of ferroportin protein was measured using a stably-transfected CHO cell line expressing the human ferroportin tagged to a luciferase reporter. Cells were plated for 24 h in the presence of ferric ammonium citrate (FAC). Ferroportin protein expression was induced with doxycycline for 24 h. The next day, the compounds were added. Test compounds were dissolved in DMSO. Cells were incubated with the test compounds for 6 h, and subsequently luciferase activity was measured using the Nano-Glo Luciferase Assay System and Glomax (Promega, Madison, Wis.). The average pEC50 was determined for the test compounds.

pEC50 | SMILES
7.2 | COc1ccnc(-c2nc3c(c(N(C)CC(=O)N[C@H]4CCC[C@H]4O)n2)CCC3)c1 (single isomer, unassigned) [Compound 171]
6.8 | COc1ccnc(-c2nc3c(c(N(C)CC(=O)N[C@H]4CCC[C@@H]4O)n2)CCC3)c1 (single isomer, unassigned) [Compound 173]
7.2 | COc1ccc(NC(=O)C(C(C)C)N(C)c2nc(-c3ccccn3)nc3c2CCC3)cn1 (single isomer, unassigned) [Compound 316]
7.1 | CC(C)C(C(=O)Nc1cnn(C)c1)N(C)c1nc(-c2ccccn2)nc2c1CCC2 (single isomer, unassigned) [Compound 317]
7.2 | CC(C)[C@@H](C(=O)Nc1cnn(C)c1)N(C)c1nc(-c2ccccn2)nc2c1CCC2 (single isomer, unassigned) [Compound 318]
7.5 | CN(CC(=O)Nc1cccc(F)c1)c1nc(-c2ccccn2)nc2c1CCC2 [Compound 74, N-(3-fluorophenyl)-2-{methyl[2-(pyridin-2-yl)-5H,6H,7H-cyclopenta[d]pyrimidin-4-yl]amino}acetamide]
7.6 | COc1ccnc(-c2nc3c(c(N(C)CC(=O)NC(C)(C)CO)n2)CCC3)c1 [Compound 136, N-(1-hydroxy-2-methylpropan-2-yl)-2-{[2-(4-methoxypyridin-2-yl)-5H,6H,7H-cyclopenta[d]pyrimidin-4-yl](methyl)amino}acetamide]
<5.0 | CN(CC(=O)NC(C)(C)C)c1nc(-c2cccnn2)nc2c1CCC2 [Compound 175, N-tert-butyl-2-{methyl[2-(pyridazin-3-yl)-5H,6H,7H-cyclopenta[d]pyrimidin-4-yl]amino}acetamide]
6.9 | COCCN(C)c1nc(-c2ccccn2)nc2sc(C)c(C)c12 [Compound 179, N-(2-methoxyethyl)-N,5,6-trimethyl-2-(pyridin-2-yl)thieno[2,3-d]pyrimidin-4-amine]
6.1 | Cc1sc2nc(-c3ccccn3)nc(N(C)CCN3CCCC3=O)c2c1C [Compound 180, 1-(2-{[5,6-dimethyl-2-(pyridin-2-yl)thieno[2,3-d]pyrimidin-4-yl](methyl)amino}ethyl)pyrrolidin-2-one]
7.2 | COc1ccc(NC(=O)CN(C)c2nc(-c3ccccn3)nc3sc(C)c(C)c23)cc1 [Compound 181, 2-{[5,6-dimethyl-2-(pyridin-2-yl)thieno[2,3-d]pyrimidin-4-yl](methyl)amino}-N-(4-methoxyphenyl)acetamide]
7 | Cc1sc2nc(-c3ccccn3)nc(N(C)CC(=O)Nc3ccccc3)c2c1C [Compound 182, 2-{[5,6-dimethyl-2-(pyridin-2-yl)thieno[2,3-d]pyrimidin-4-yl](methyl)amino}-N-phenylacetamide]
7.1 | Cc1sc2nc(-c3ccccn3)nc(N(C)CC(=O)Nc3cccnc3)c2c1C [Compound 183, 2-{[5,6-dimethyl-2-(pyridin-2-yl)thieno[2,3-d]pyrimidin-4-yl](methyl)amino}-N-(pyridin-3-yl)acetamide]
6.9 | Cc1sc2nc(-c3ccccn3)nc(N(C)CC(=O)N(C)C)c2c1C [Compound 184, 2-{[5,6-dimethyl-2-(pyridin-2-yl)thieno[2,3-d]pyrimidin-4-yl](methyl)amino}-N,N-dimethylacetamide]
6.3 | CN(c1nc(-c2ccccn2)nc2c1CCC2)C1CCc2ccccc21 (stereo not drawn) [Compound 185, N-(2,3-dihydro-1H-inden-1-yl)-N-methyl-2-(pyridin-2-yl)-5H,6H,7H-cyclopenta[d]pyrimidin-4-amine]
5.3 | O=C(O)CCCCCNc1nc(-c2ccccn2)nc2c1CCC2 [Compound 186, 6-{[2-(pyridin-2-yl)-5H,6H,7H-cyclopenta[d]pyrimidin-4-yl]amino}hexanoic acid]
6.8 | c1ccc(-c2nc3c(c(N4CCCOC5CCCC54)n2)CCC3)nc1 (stereo not drawn) [Compound 187, 2-(4-{octahydro-2H-cyclopenta[b][1,4]oxazepin-5-yl]-5H,6H,7H-cyclopenta[d]pyrimidin-2-yl)pyridine]
5.7 | CC1CCN(c2nc(-c3ccccn3)nc3c2CCC3)C1 (stereo not drawn) [Compound 188, 2-[4-(3-methylpyrrolidin-1-yl)-5H,6H,7H-cyclopenta[d]pyrimidin-2-yl]pyridine]
6.7 | OCCC1CCCCCN1c1nc(-c2ccccn2)nc2c1CCC2 (stereo not drawn) [Compound 189, 2-{1-[2-(pyridin-2-yl)-5H,6H,7H-cyclopenta[d]pyrimidin-4-yl]azepan-2-yl}ethan-1-ol]
6.2 | O=C(NC1CCN(c2nc(-c3ccccn3)nc3scc(-c4ccccc4)c23)CC1)c1cccnc1 [Compound 191, N-{1-[5-phenyl-2-(pyridin-2-yl)thieno[2,3-d]pyrimidin-4-yl]piperidin-4-yl}pyridine-3-carboxamide]
5.9 | Cc1sc2nc(-c3ccccn3)nc(NCCCO)c2c1-c1ccccc1 [Compound 192, 3-{[6-methyl-5-phenyl-2-(pyridin-2-yl)thieno[2,3-d]pyrimidin-4-yl]amino}propan-1-ol]
6.4 | CCN(CCO)c1nc(-c2ccccn2)nc2scc(-c3ccccc3)c12 [Compound 193, 2-{ethyl[5-phenyl-2-(pyridin-2-yl)thieno[2,3-d]pyrimidin-4-yl]amino}ethan-1-ol]
6.3 | CCc1cc(N2Cc3ccccc3N(C)CC2C)nc(-c2ccccn2)n1 (stereo not drawn) [Compound 194, 4-[6-ethyl-2-(pyridin-2-yl)pyrimidin-4-yl]-1,3-dimethyl-2,3,4,5-tetrahydro-1H-1,4-benzodiazepine]
6.5 | Cc1cccc(C)c1NC(=O)CN(C)c1nc(-c2ccccn2)nc(C)c1C [Compound 195, 2-{[5,6-dimethyl-2-(pyridin-2-yl)pyrimidin-4-yl](methyl)amino}-N-(2,6-dimethylphenyl)acetamide]
6.7 | Cc1nc(-c2ccccn2)nc(N(C)CCN(C)c2ccccc2)c1C [Compound 196, N,5,6-trimethyl-N-{2-[methyl(phenyl)amino]ethyl}-2-(pyridin-2-yl)pyrimidin-4-amine]
6.3 | Cc1sc2nc(-c3ccccn3)nc(N(C)CC(C)O)c2c1-c1ccccc1 (stereo not drawn) [Compound 197, 1-{methyl[6-methyl-5-phenyl-2-(pyridin-2-yl)thieno[2,3-d]pyrimidin-4-yl]amino}propan-2-ol]
6 | CCC1COCCN1c1nc(-c2ccccn2)nc2scc(-c3ccccc3)c12 (stereo not drawn) [Compound 198, 3-ethyl-4-[5-phenyl-2-(pyridin-2-yl)thieno[2,3-d]pyrimidin-4-yl]morpholine]
5.8 | c1ccc(-c2csc3nc(-c4ccccn4)nc(N4CCN(CCN5CCCC5)CC4)c23)cc1 [Compound 199, 1-[5-phenyl-2-(pyridin-2-yl)thieno[2,3-d]pyrimidin-4-yl]-4-[2-(pyrrolidin-1-yl)ethyl]piperazine]
5.3 | CN1CCN(c2nc(-c3ccccn3)nc3sc(-c4ccccc4)cc23)CC1 [Compound 200, 1-methyl-4-[6-phenyl-2-(pyridin-2-yl)thieno[2,3-d]pyrimidin-4-yl]piperazine]
6 | CC(C#N)CN(C)c1nc(-c2ccccn2)nc2sc(-c3ccccc3)cc12 (stereo not drawn) [Compound 201, 2-methyl-3-{methyl[6-phenyl-2-(pyridin-2-yl)thieno[2,3-d]pyrimidin-4-yl]amino}propanenitrile]
